Data on 11 compounds can be found in patent US7098218B2, “Steroidal compounds for inhibiting steroid sulphatase” (priority 2001, dated 2006).

Several values for one entry are separate records, joined by “and”; a condition that tells them apart may be missing. Equal entries are not always repeated.

Assay [1] deals with T1, human placental steroid sulphatase (Homo sapiens, UniProt P08842).
T1 construct: Placental microsomes (100000 g fraction) were prepared from a positive-positive human placenta from a normal-term pregnancy; from tissue; host or cells: human placenta, microsomal fraction
T1 sequence (P08842 22-583): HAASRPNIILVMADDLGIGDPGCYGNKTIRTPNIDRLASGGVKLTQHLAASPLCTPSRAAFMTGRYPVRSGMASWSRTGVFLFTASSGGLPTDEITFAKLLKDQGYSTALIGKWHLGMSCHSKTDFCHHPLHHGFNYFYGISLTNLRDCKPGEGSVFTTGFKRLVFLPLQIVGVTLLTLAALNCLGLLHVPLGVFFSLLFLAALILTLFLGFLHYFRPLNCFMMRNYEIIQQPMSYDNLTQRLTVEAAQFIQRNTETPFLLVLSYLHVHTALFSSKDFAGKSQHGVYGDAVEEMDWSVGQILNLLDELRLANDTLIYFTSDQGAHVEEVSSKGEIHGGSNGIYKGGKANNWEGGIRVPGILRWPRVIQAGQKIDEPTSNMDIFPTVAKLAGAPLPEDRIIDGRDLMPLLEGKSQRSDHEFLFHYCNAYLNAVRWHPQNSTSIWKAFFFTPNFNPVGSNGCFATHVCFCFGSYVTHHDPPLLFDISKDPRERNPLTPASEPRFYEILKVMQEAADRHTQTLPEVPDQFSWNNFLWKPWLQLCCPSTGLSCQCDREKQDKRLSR
The experiment in a line: Inhibition of oestrone sulphatase activity in human placental microsomes. It is filed as biochemical.

In assay [2] the target is T2, E1-STS in intact MCF-7 cells (Homo sapiens, UniProt P08842).
T2 construct: endogenous in cells; host or cells: MCF-7 human breast cancer cells
T2 sequence (P08842 22-583): T1 sequence (P08842 22-583)
Also noted: dose or concentration left out as unconfirmed. Particulars: cited from earlier work.

Assay [3] deals with rats (uterotrophic activity). To be noted: cited from earlier work.
The test system of assay [4] is breast tumour cells. To be noted: cited from earlier work.
The target in assay [5] is T3, STS (Homo sapiens, UniProt P08842).
T3 construct: can be assessed using either intact MCF-7 breast cancer cells or placental microsomes
T3 sequence (P08842 22-583): T1 sequence (P08842 22-583)
Briefly: biochemical. Particulars: for IC50: STS IC50 (nM), inhibition of E1S→E1, Table 1.

Assay [6] addresses T4, E2DH Type I (HSD Type I) in T47D breast cancer cells (Homo sapiens, UniProt P14061).
T4 construct: T47D breast cancer cells in which E2HSD Type I activity is abundant; endogenous in cells; host or cells: T47D breast cancer cells
T4 sequence (P14061 2-328 limits assumed): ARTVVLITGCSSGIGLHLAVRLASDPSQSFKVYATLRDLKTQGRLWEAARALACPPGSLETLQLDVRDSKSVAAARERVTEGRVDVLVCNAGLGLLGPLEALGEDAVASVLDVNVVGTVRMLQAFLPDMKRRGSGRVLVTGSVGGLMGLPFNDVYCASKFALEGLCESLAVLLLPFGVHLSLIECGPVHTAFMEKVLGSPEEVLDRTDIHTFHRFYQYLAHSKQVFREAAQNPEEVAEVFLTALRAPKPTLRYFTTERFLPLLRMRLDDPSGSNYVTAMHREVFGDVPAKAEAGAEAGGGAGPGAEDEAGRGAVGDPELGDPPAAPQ
The experiment in a line: Conversion of oestrone to oestradiol in intact T47D cell monolayers (Protocol 7). It is filed as cell-based. Particulars: T47D, measured at 10 μM, read-out: % Inhibition E1 → E2 ± SD (HSD Type I). The method, then:
(§1) The ability of compounds to inhibit steroid dehydrogenase activity can be assessed using either T47D breast cancer cells in which E2HSD Type I activity is abundant or MDA-MB-231 cells for Type II inhibitor studies. In both cell lines formation of products is linear with respect to time and cell numbers. Details on a suitable Assay Protocol are presented in the Examples section.
(§2) Conversion of oestrone to oestradiol (E1→E2, E2DH Type I) and oestradiol to oestrone (E2→E1, E2DH Type II) was measured in intact cell monolayers of T47D and MDA-MB231 breast cancer cells respectively. Cells were cultured in flasks until they were 80–90% confluent. ^3 H-E1 or ^3H-E2 (6 pmol, ˜90 Ci/mmol) were added to each flask in the absence (control) or presence of various test compounds (10 μM) in 2.5 ml of medium. Substrate was also added to flasks without cells and incubated in parallel (blanks).
(§3) After incubation with T47D cells for 30 min or MDA cells for 3 h at 37° C., 2 ml of the medium was added to test tubes containing ^14C-E2 or ^14C-E1 (˜5000 cpm) and 50 μg E2 or E1 respectively. Steroids were extracted from the aqueous medium with diethyl ether (4 ml). The ether phase was decanted into separate tubes after freezing the aqueous phase in solid carbon dioxide-methanol mixture. The ether was evaporated to dryness under a stream of air at 40° C. The residue was dissolved in a small volume of diethyl ether and applied to TLC plates containing a fluorescent indicator. E1 and E2 were separated by TLC using DCM-Ethyl acetate (4:1 v/v). The position of the product from each incubation flask was marked on the TLC plate after visualisation under UV light. The marked regions were cut out and placed in scintillation vials containing methanol (0.5 ml) to elute the product. The amount of ^3 H-product formed and ^14C-E1 or ^14C-E2 recovered were calculated after scintillation spectrometry. The amount of product formed was corrected for procedural losses and for the number of cells in each flask.

Assay [7] concerns the target T5, E2DH Type II (HSD Type II) in MDA-MB231 breast cancer cells (Homo sapiens, UniProt P37059).
T5 construct: endogenous in cells; host or cells: MDA-MB-231 breast cancer cells
T5 sequence (P37059 1-387): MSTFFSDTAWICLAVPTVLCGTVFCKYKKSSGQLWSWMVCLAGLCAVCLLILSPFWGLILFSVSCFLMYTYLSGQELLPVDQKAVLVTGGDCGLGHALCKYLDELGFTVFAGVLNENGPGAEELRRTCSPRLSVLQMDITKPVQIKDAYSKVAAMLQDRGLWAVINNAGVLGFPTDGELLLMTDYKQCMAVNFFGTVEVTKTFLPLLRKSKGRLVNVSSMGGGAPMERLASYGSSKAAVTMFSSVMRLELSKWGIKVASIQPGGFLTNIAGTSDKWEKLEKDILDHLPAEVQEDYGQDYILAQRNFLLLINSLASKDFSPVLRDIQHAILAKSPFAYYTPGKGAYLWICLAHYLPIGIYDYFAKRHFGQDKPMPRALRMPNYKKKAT
The experiment in a line: Conversion of oestradiol to oestrone in intact MDA-MB231 cell monolayers (Protocol 7). It is filed as cell-based. Particulars: MDA-MB-231, measured at 10 μM, read-out: % Inhibition E2 → E1 ± SD (HSD Type II). The method, then:
as §1, §2, §3

The target in assay [8] is T6, steroid sulphatase (Homo sapiens, UniProt P08842).
T6 sequence (P08842 22-583): T1 sequence (P08842 22-583)
Particulars: cited from earlier work.

Assay [9] has as its target T7, rat liver STS (Rattus norvegicus, UniProt P15589).
T7 construct: samples of liver tissue were obtained and oestrone sulphatase activity assayed; from tissue; host or cells: rat liver
T7 sequence (P15589 20-577): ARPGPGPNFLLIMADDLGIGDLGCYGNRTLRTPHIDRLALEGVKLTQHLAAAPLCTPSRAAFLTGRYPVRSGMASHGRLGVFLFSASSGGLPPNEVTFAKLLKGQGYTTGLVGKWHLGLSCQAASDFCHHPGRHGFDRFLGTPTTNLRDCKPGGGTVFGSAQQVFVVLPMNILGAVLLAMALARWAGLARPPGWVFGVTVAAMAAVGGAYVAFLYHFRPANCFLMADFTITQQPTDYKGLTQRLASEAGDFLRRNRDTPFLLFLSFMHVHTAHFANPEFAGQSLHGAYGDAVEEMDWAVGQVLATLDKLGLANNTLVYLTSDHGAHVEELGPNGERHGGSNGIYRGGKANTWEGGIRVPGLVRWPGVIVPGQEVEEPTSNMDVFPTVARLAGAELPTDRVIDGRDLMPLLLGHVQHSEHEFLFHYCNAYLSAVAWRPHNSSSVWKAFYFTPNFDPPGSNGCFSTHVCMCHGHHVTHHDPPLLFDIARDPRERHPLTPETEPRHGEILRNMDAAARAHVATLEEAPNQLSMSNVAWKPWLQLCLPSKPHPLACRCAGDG
The experiment in a line: Inhibition of oestrone sulphatase activity in vivo, rat liver (Protocol 3). To be noted: rats; 10 mg/Kg/day for five days orally. The method, then:
The compounds of the present invention may be studied using an animal model, in particular in ovariectomised rats. In this model compounds which are oestrogenic stimulate uterine growth.
The compound (10 mg/Kg/day for five days) was administered orally to rats with another group of animals receiving vehicle only (propylene glycol). A further group received the compound EMATE subcutaneously in an amount of 10 μg/day for five days. At the end of the study samples of liver tissue were obtained and oestrone sulphatase activity assayed using 3 H oestrone sulphate as the substrate as previously described (see PCT/GB95/02638).

For assay [10], the system named is ovariectomised rats (uterine growth). Briefly: In vivo oestrogenicity, uterine growth in ovariectomised rats (Protocol 4). Particulars: 10 mg/Kg/day for five days orally, uterine weight. The arrangement: species or system rat. The method, then: The compounds of the present invention may be studied using an animal model, in particular in ovariectomised rats. In this model, compounds which are oestrogenic stimulate uterine growth.
The compound (10 mg/Kg day for five days) was administered orally to rats with another group of animals receiving vehicle only (propylene glycol). A further group received the estrogenic compound EMATE subcutaneously in an amount of […] for five days. At the end of the study uteri were obtained and weighed with the results being expressed as uterine weight/whole body weight×100.

[11] abbreviates: read-out: Mean % Inhibition ± SD.

`C[C@]12CC[C@@H]3c4ccc(OS(N)(=O)=O)cc4CC[C@H]3[C@@H]1CCC2=O` [EMATE, estrone-3-O-sulfamate]: the IC50 in assay [1] was found to be 8 nM. For the same compound, the “inhibition of E1-STS activity” value in assay [2] is reported as “more than 99%”. Also, the “oral uterotrophic activity, times higher than that of oestradiol” value in assay [3] was 100 times.

Turning to `C[C@]12CC[C@@H]3c4ccc(O)cc4CC[C@H]3[C@@H]1CC[C@@H]2O` [Oestradiol, oestradiol], the “proliferative effect, fold greater than oestrone” value in assay [4] is 10 fold.

Turning to `CC(C)(C)c1ccc(CN2C(=O)CC3C4CCc5cc(OS(N)(=O)=O)ccc5C4CC[C@]3(C)C2=O)cc1` (some centres unmarked) [compound 285], in [5], the IC50 worked out at 23 nM. The inhibition at 10 µM in [6] stood at 22.5 ± 3.72%; in assay [7], 3.56 ± 4.89%.

With `CCN1C(=O)CC2C3CCc4cc(OS(N)(=O)=O)ccc4C3CC[C@]2(C)C1=O` (some centres unmarked) [compound 281], the concentration for half-maximal inhibition (IC50) in assay [5] was 52 nM and 24 nM and 29 nM. The inhibition at 10 µM in [6] was 24.7 ± 2.39%; in assay [7], 20.4 ± 3.14%.

In assay [5], `CCCN1C(=O)CC2C3CCc4cc(OS(N)(=O)=O)ccc4C3CC[C@]2(C)C1=O` (some centres unmarked) [compound 213] returned an IC50 of 41 nM. In addition, the results for the inhibition at 10 µM in [6] and in [7] were 22.5 ± 1.62% and 14.3 ± 14.8%, respectively.

For `NS(=O)(=O)Oc1ccc2c3c(c(=O)oc2c1)CCCCC3` [667 Coumate, reference compound], the “667 Coumate value: % Inhibition” value in [5] (0.005 µM) was 5 nM = 63%Inhibition and 5 nM = 56%Inhibition. For the same compound, the inhibition at 0.005 µM in [5] (read-out: 667 Coumate value: % Inhibition) amounted to 63%. The “times more potent than EMATE in vitro” value in assay [8] was approximately 3 times.

In assay [5], `COc1cc2c(cc1OS(N)(=O)=O)CCC1C2CC[C@]2(C)C(=O)NC(=O)CC12` (some centres unmarked) [compound 326] gave an IC50 of 309 nM. Moreover, the inhibition at 10 µM in [6] amounted to 7.5 ± 12.4%; in assay [7], 15 ± 1.22%.

As to `C[C@]12CCC3c4ccc(OS(N)(=O)=O)cc4CCC3C1CC(=O)N(Cc1ccccc1)C2=O` (some centres unmarked) [compound 236], half-maximal inhibition in [5] (IC50) required 280 nM. For the same compound, the inhibition at 10 µM is 20.4 ± 6.25% in assay [6] and 5.84 ± 11.8% in assay [7].

`CCCN1C(=O)CC2C3CCc4cc(OS(N)(=O)=O)ccc4C3CC[C@]2(C)C1=O` (some centres unmarked) [STX 213, 3Sulfamoyl-N-propyl-16,17-seco-estra-1,3,5(10)-triene-16,17-imide]: half-maximal inhibition in assay [1] (IC50) was put at 1 nM. Besides, in assay [1] (setting [11]), the inhibition at 0.0001 µM stood at 21.2 ± 0.8%, the inhibition at 0.001 µM is 49.3 ± 1.2%, the inhibition at 0.01 µM stood at 64.1 ± 4.6% and the inhibition at 0.1 µM was 84.6 ± 1.3%. In assay [1] (setting [11]), the inhibition at 1 µM worked out at 96.8 ± 0.8% and the inhibition at 10 µM was determined as 99.3 ± 1.1%. Besides, in [9], the “inhibition of rat liver STS (FIG. 3)” value was “inhibition of rat liver STS”.

Turning to `C[C@]12CCC3c4ccc(OS(N)(=O)=O)cc4CCC3C1CC(=O)N(Cc1cccnc1)C2=O` (some centres unmarked) [STX 237, 3-Sulfamoyl-N-(3-picolyl)-16,17-seco-estra-1,3,5(10)-triene-16,17-imide], the “inhibition of STS (in words)” value in assay [1] (in vitro) is reported as “Good inhibition”. The “times more potent than EMATE” value in [1] (ratio of IC50 values versus EMATE) came out at 18 times. Moreover, in assay [9], the “inhibition of rat liver STS (FIG. 3)” value is “inhibition of rat liver STS”. For the same compound, the “oestrogenicity (FIG. 2)” value in assay [10] is reported as “lack of oestrogenicity”.

Turning to `CCCN1C(=O)CC2C3CCc4cc(OS(N)(=O)=O)ccc4C3CC[C@]2(C)C1=O` (some centres unmarked) [STX213], in assay [10], the “oestrogenicity (FIG. 2)” value is “lack of oestrogenicity”.
